This note sets out measurements from patent US12398097B2, “WDR5-MYC inhibitors” (Vanderbilt University, priority 2019, dated 2025).

In general, Ki refers to the equilibrium dissociation constant of an inhibitor or competing ligand from its target.

The target in the assay is WDR5 (Homo sapiens, UniProt P61964). The experiment in a line: Competition-based fluorescence polarization anisotropy assay. The note with it: binding to WDR5; displacement of FITC-labeled small molecule probe (analogous to Example J2 or HCH-25) or peptide probe FITC-AHx-SEEEIDVVSV; pH 6.0; Ki converted from IC50. In short, it runs like this: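 Ki values derive from displacement of either a fluorescent small-molecule probe or a FITC-peptide probe from WDR5, monitored by fluorescence polarization. Assay run at pH 6.0 in 200 mM phosphate with 300 mM NaCl, 0.5 mM TCEP and 0.1% Chaps.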
(Fluorescence polarisation rises when a labelled molecule tumbles more slowly, as on binding a larger partner.)
Molecule `O=C(NCCO)c1c(O)c(NS(=O)(=O)c2cc(Br)ccc2O)cc(C2CC2)c1F` [Example J126, 3-((5-Bromo-2-hydroxyphenyl)sulfonamido)-5-cyclopropyl-6-fluoro-2-hydroxy-N-(2-hydroxyethyl)benzamide] displayed a Ki of 770 nM.

`COCCNC(=O)c1c(O)c(NS(=O)(=O)c2cc(Br)ccc2O)cc(C2CC2)c1F` [Example J127, 3-((5-Bromo-2-hydroxyphenyl)sulfonamido)-5-cyclopropyl-6-fluoro-2-hydroxy-N-(2-methoxyethyl)benzamide] gave a Ki of 1970 nM.

`O=C(NC1COC1)c1c(O)c(NS(=O)(=O)c2cc(Br)ccc2O)cc(C2CC2)c1F` [Example J128, 3-((5-Bromo-2-hydroxyphenyl)sulfonamido)-5-cyclopropyl-6-fluoro-2-hydroxy-N-(oxetan-3-yl)benzamide] came in with an inhibition constant (Ki) of 700 nM. `O=C(NC1CCOC1)c1c(O)c(NS(=O)(=O)c2cc(Br)ccc2O)cc(C2CC2)c1F` (stereo not shown) [Example J131, 3-((5-Bromo-2-hydroxyphenyl)sulfonamido)-5-cyclopropyl-6-fluoro-2-hydroxy-N-(tetrahydrofuran-3-yl)benzamide] had a Ki of 2990 nM. For the molecule `O=C(N[C@@H]1CCOC1)c1c(O)c(NS(=O)(=O)c2cc(Br)ccc2O)cc(C2CC2)c1F` [Example J132, (R)-3-((5-Bromo-2-hydroyphenyl)sulfonamido)-5-cyclopropyl-6-fluoro-2-hydroxy-N-(tetrahydrofuran-3-yl)benzamide], the affinity corresponds to a Ki of 2450 nM. In the case of `O=C(N[C@H]1CCOC1)c1c(O)c(NS(=O)(=O)c2cc(Br)ccc2O)cc(C2CC2)c1F` [Example J133, (S)-3-((5-Bromo-2-hydroxyphenyl)sulfonamido)-5-cyclopropyl-6-fluoro-2-hydroxy-N-(tetrahydrofuran-3-yl)benzamide] it was 4510 nM. Molecule `CNC(=O)c1cc(NS(=O)(=O)c2cc(Br)ccc2O)cc(C2CC2)c1F` [Example J135, 5-((5-Bromo-2-hydroxyphenyl)sulfonamido)-3-cyclopropyl-2-fluoro-N-methylbenzamide] showed a Ki of 690 nM.

On to `COCCNC(=O)c1cc(NS(=O)(=O)c2cc(Br)ccc2O)cc(C2CC2)c1F` [Example J136, 5-((5-Bromo-2-hydroxyphenyl)sulfonamido)-3-cyclopropyl-2-fluoro-N-(2-methoxyethyl)benzamide], for which the affinity corresponds to a Ki of 1110 nM. For the molecule `O=C(NCCN1CCOCC1)c1cc(NS(=O)(=O)c2cc(Br)ccc2O)cc(C2CC2)c1F` [Example J137, 5-((5-Bromo-2-hydroxyphenyl)sulfonamido)-3-cyclopropyl-2-fluoro-N-(2-morpholinoethyl)benzamide], the affinity corresponds to a Ki of 2980 nM. In the case of `O=C(NC1COC1)c1cc(NS(=O)(=O)c2cc(Br)ccc2O)cc(C2CC2)c1F` [Example J138, 5-((5-Bromo-2-hydroxyphenyl)sulfonamido)-3-cyclopropyl-2-fluoro-N-(oxetan-3-yl)benzamide] it was 4750 nM. In the case of `O=C(NC1CCOC1)c1cc(NS(=O)(=O)c2cc(Br)ccc2O)cc(C2CC2)c1F` (stereo not shown) [Example J139, 5-((5-Bromo-2-hydroxyphenyl)sulfonamido)-3-cyclopropyl-2-fluoro-N-(tetrahydrofuran-3-yl)benzamide] it was 12200 nM; in that of `CNC(=O)c1cc(C2CC2)cc(NS(=O)(=O)c2cc(Br)ccc2O)c1F` [Example J141, 3-((5-Bromo-2-hydroxyphenyl)sulfonamido)-5-cyclopropyl-2-fluoro-N-methylbenzamide], 960 nM. For `COCCNC(=O)c1cc(C2CC2)cc(NS(=O)(=O)c2cc(Br)ccc2O)c1F` [Example J142, 3-((5-Bromo-2-hydroxyphenyl)sulfonamido)-5-cyclopropyl-2-fluoro-N-(2-methoxyethyl)benzamide] the value was 1480 nM. `O=C(NCCN1CCOCC1)c1cc(C2CC2)cc(NS(=O)(=O)c2cc(Br)ccc2O)c1F` [Example J143, 3-((5-Bromo-2-hydroxyphenyl)sulfonamido)-5-cyclopropyl-2-fluoro-N-(2-morpholinoethyl)benzamide] registered an inhibition constant Ki of 2540 nM. For `O=C(NC1COC1)c1cc(C2CC2)cc(NS(=O)(=O)c2cc(Br)ccc2O)c1F` [Example J144, 3-((5-Bromo-2-hydroxyphenyl)sulfonamido)-5-cyclopropyl-2-fluoro-N-(oxetan-3-yl)benzamide] the value was 6760 nM; for `CNC(=O)c1c(O)c(NS(=O)(=O)c2cc(Br)cc(Cl)c2O)cc(C2CC2)c1F` [Example J146, 3-((5-Bromo-3-chloro-2-hydroxyphenyl)sulfonamido)-5-cyclopropyl-6-fluoro-2-hydroxy-N-methylbenzamide], 40 nM. In the case of `COCCNC(=O)c1c(O)c(NS(=O)(=O)c2cc(Br)cc(Cl)c2O)cc(C2CC2)c1F` [Example J147, 3-((5-Bromo-3-chloro-2-hydroxyphenyl)sulfonamido)-5-cyclopropyl-6-fluoro-2-hydroxy-N-(2-methoxyethyl)benzamide] it was 230 nM. As for `O=C(NCCN1CCOCC1)c1c(O)c(NS(=O)(=O)c2cc(Br)cc(Cl)c2O)cc(C2CC2)c1F` [Example J148, 3-((5-Bromo-3-chloro-2-hydroxyphenyl)sulfonamido)-5-cyclopropyl-6-fluoro-2-hydroxy-N-(2-morpholinoethyl)benzamide], the Ki amounted to 600 nM.

With `O=C(NC1COC1)c1c(O)c(NS(=O)(=O)c2cc(Br)cc(Cl)c2O)cc(C2CC2)c1F` [Example J149, 3-((5-Bromo-3-chloro-2-hydroxyphenyl)sulfonamido)-5-cyclopropyl-6-fluoro-2-hydroxy-N-(oxetan-3-yl)benzamide], affinity was put at a Ki of 710 nM. In the case of `CNC(=O)c1c(O)c(NS(=O)(=O)c2cc(Br)cc(F)c2O)cc(C2CC2)c1F` [Example J150, 3-((5-Bromo-3-fluoro-2-hydroxyphenyl)sulfonamido)-5-cyclopropyl-6-fluoro-2-hydroxy-N-methylbenzamide], affinity was put at a Ki of 920 nM.

Consider `CNC(=O)c1cc(NS(=O)(=O)c2cc(Br)cc(Cl)c2O)cc(C2CC2)c1F` [Example J151, 5-((5-Bromo-3-chloro-2-hydroxyphenyl)sulfonamido)-3-cyclopropyl-2-fluoro-N-methylbenzamide], for which the affinity, expressed as Ki, was 210 nM. In the case of `COCCNC(=O)c1cc(NS(=O)(=O)c2cc(Br)cc(Cl)c2O)cc(C2CC2)c1F` [Example J152, 5-((5-Bromo-3-chloro-2-hydroxyphenyl)sulfonamido)-3-cyclopropyl-2-fluoro-N-(2-methoxyethyl)benzamide] it was 320 nM; in that of `O=C(NCCN1CCOCC1)c1cc(NS(=O)(=O)c2cc(Br)cc(Cl)c2O)cc(C2CC2)c1F` [Example J153, 5-((5-Bromo-3-chloro-2-hydroxyphenyl)sulfonamido)-3-cyclopropyl-2-fluoro-N-(2-morpholinoethyl)benzamide], 440 nM; in that of `O=C(Nc1nc[nH]n1)c1cc(NS(=O)(=O)c2cc(Br)cc(Cl)c2O)cc(C2CC2)c1F` [Example J154, 5-((5-Bromo-3-chloro-2-hydroxyphenyl)sulfonamido)-3-cyclopropyl-2-fluoro-N-(1H-1,2,4-triazol-3-yl)benzamide], 130 nM. Consider `O=C(NC1COC1)c1cc(NS(=O)(=O)c2cc(Br)cc(Cl)c2O)cc(C2CC2)c1F` [Example J155, 5-((5-Bromo-3-chloro-2-hydroxyphenyl)sulfonamido)-3-cyclopropyl-2-fluoro-N-(oxetan-3-yl)benzamide], for which the Ki came out at 330 nM.

Consider `CNC(=O)c1cc(C2CC2)cc(NS(=O)(=O)c2cc(Br)cc(Cl)c2O)c1F` [Example J156, 3-((5-Bromo-3-chloro-2-hydroxyphenyl)sulfonamido)-5-cyclopropyl-2-fluoro-N-methylbenzamide], for which the Ki was found to be 210 nM. In the case of `COCCNC(=O)c1cc(C2CC2)cc(NS(=O)(=O)c2cc(Br)cc(Cl)c2O)c1F` [Example J157, 3-((5-Bromo-3-chloro-2-hydroxyphenyl)sulfonamido)-5-cyclopropyl-2-fluoro-N-(2-methoxyethyl)benzamide] it was 210 nM. Consider `O=C(NCCN1CCOCC1)c1cc(C2CC2)cc(NS(=O)(=O)c2cc(Br)cc(Cl)c2O)c1F` [Example J158, 3-((5-Bromo-3-chloro-2-hydroxyphenyl)sulfonamido)-5-cyclopropyl-2-fluoro-N-(2-morpholinoethyl)benzamide], for which the inhibitory constant (Ki) is 320 nM. Take `O=C(NC1COC1)c1cc(C2CC2)cc(NS(=O)(=O)c2cc(Br)cc(Cl)c2O)c1F` [Example J159, 3-((5-Bromo-3-chloro-2-hydroxyphenyl)sulfonamido)-5-cyclopropyl-2-fluoro-N-(oxetan-3-yl)benzamide]: the Ki was 610 nM. In the case of `O=C(O)c1cc(OC(F)(F)F)cc(NS(=O)(=O)c2cc(Br)ccc2O)c1O` [Example J160, 3-((5-Bromo-2-hydroxyphenyl)sulfonamido)-2-hydroxy-5-(trifluoromethoxy)benzoic acid] it was 60 nM. In the case of `O=C(O)c1cc(OC(F)(F)F)cc(NS(=O)(=O)c2cc(Br)cc3cccnc23)c1O` [Example J161, 3-((6-Bromoquinoline)-8-sulfonamido)-2-hydroxy-5-(trifluoromethoxy)benzoic acid] it was 350 nM; in that of `CNC(=O)c1cc(OC(F)(F)F)cc(NS(=O)(=O)c2cc(Br)ccc2O)c1O` [Example J162, 3-((5-Bromo-2-hydroxyphenyl)sulfonamido)-2-hydroxy-N-methyl-5-(trifluoromethoxy)benzamide], 410 nM. For `COCCNC(=O)c1cc(OC(F)(F)F)cc(NS(=O)(=O)c2cc(Br)ccc2O)c1O` [Example J163, 3-((5-Bromo-2-hydroxyphenyl)sulfonamido)-2-hydroxy-N-(2-methoxyethyl)-5-(trifluoromethoxy)benzamide] the value was 570 nM; for `O=C(NCCN1CCOCC1)c1cc(OC(F)(F)F)cc(NS(=O)(=O)c2cc(Br)ccc2O)c1O` [Example J164, 3-((5-Bromo-2-hydroxyphenyl)sulfonamido)-2-hydroxy-N-(2-morpholinoethyl)-(trifluoromethoxy)benzamide], 1440 nM.
